Data set [1] concerns total Akt protein in DMS-114 cells. Briefly: Total Akt by western blot analysis, DMS-114. In kind it is cell-based, human. Conditions: DMS-114, 250 nM, after 24 hrs. The protocol:
(§1) Cell viability was determined at 24, 48, and 96 hrs by the trypan exclusion method. Whole cell lysates were prepared using standard procedures and fifty micrograms of lysate protein was separated on SDS-PAGE gels and analyzed by western blotting.
(§2) Cell viability was determined at 24, 48, and 96 h by the trypan exclusion method. Whole cell lysates were prepared using standard procedures and 50 μg of lysate protein was separated on SDS-PAGE gels and analyzed by western blotting.

In data set [2] the test system is DMS-114 and SHP-77 SCLC cell lines. Briefly: Cell viability by trypan blue exclusion. In kind it is cell-based, human. Conditions: 250 nM, within four days. As to the method:
as §1, §2

For data set [3], the system named is DMS114 and SHP77 cell lines. Briefly: Microarray differential gene expression analysis. In kind it is cell-based, human. The following applies: 150 or 300 nM, 6 h. The protocol: For each cell line, four sets of microarray experiments were performed, with each set consisting of control and treated cells exposed for 6 h either to DMSO or COTI-2 at 150 or 300 nM total concentration. Total RNA was prepared with RNeasy (Qiagen) and converted to Cy3 or Cy5-labelled cRNA according to procedures provided with the linear amplification kit from Agilent Technologies. Two hundred […] of labeled cRNA were hybridized to 4×44K Agilent whole genome microarrays, the arrays were washed, scanned and relevant features were extracted according to the manufacturer's protocol and further analyzed as described by Wolber et al. (Methods in Enzymology 410:28-57), which is incorporated herein by reference in its entirety.
Cy5 and Cy3 features were extracted and normalized by median centering the expression values relative to the median value of the 8 hybridization experiments performed on each microarray slide. […] Statistically significant changes in gene expression between treatment and control groups were determined by SAM analysis using TIGR software from The Institute of Genomic Research or by t tests with false discovery correction. Only genes that were differentially expressed in all 4 biologically-independent groups were further analyzed. […] The intersection of common genes was determined using GeneVenn (http://mcbc.usm.edu/qenevenn/genevenn.htm).

A further data set concerns SHP 77 cells. Briefly: Proliferation with anti-cancer agents plus COTI-2, SHP 77. In kind it is cell-based, human.
Another data set deals with SHP77 cells. Briefly: AKT/AKT2 siRNA then COTI-2, cell viability by MTT assay, SHP77. In kind it is cell-based, human. Conditions: SHP 77. The protocol:
Cell cultures were maintained under regular tissue culture conditions and passaged 1-2 times a week as recommended by ATCC. For siRNA experiments the manufacturer's conditions for growth and transfection were followed. All siRNA reagents for AKT and AKT2 transfections were obtained from Cell Signaling.
Cells were treated for 48 h with 0-100 ng of AKT or AKT2 siRNA before incubation with COTI-2 at various concentrations (0-500 nM). Following incubation for 48 h, cell viability was determined by MTT assay.
For orientation: Formazan colour is commonly taken as a measure of viable cells.

In the next data set the test system is HL-60. Briefly: Flow cytometric analysis of cell death (Annexin V/PI), HL-60. Type of data set: cell-based, human. The following applies: HL-60, 200 nM. The protocol: All cell lines were grown and exposed to various concentrations of COTI-2 or vehicle only control and the percentage of dead or dying cells were determined 24 and 48 h post-exposure by Annexin V and propidium iodide.
HL-60 (human promyelocytic leukemia) cells were grown as non-adherent cells in flasks in RPMI 1640 medium supplemented with 10% FBS. H226 (human non-small cell lung cancer) cells were grown in Eagle's MEM supplemented with 10% FBS. Both cell lines were obtained from the American Type Culture Collection (ATCC)(Rockville, Md.) and maintained at 37° C. in a humidified 5% CO2 atmosphere.
Cells were plated in 25-cm^2 flasks and treated with COTI-2 (0-100 μM) added from a stock DMSO/DMEM solution such that DMSO concentrations never exceeded 0.5%. Control cells were treated with stock DMSO/DMEM. […] Resuspended cells (100 μl) were incubated in the dark with 10 μl propidium iodide (PI, 50 ng per ml; Sigma, St. Louis, Mo.) plus Annexin V-FITC (25 ng per ml, green fluorescence; BD Biosciences, Mississauga, Ontario). […] Samples were analyzed for combined Annexin V/PI staining (to assess dead plus apoptotic cells) using a Beckman Coulter EPCS XL-MCL flow cytometer (Beckman Coulter, Hileah, Fla.) and the data were analyzed with CellQuest software.
(In general: Flow cytometry measures light scatter and fluorescence of single cells or particles in a stream.)

The nature of data set [4]: A-B Permeability (TC7, pH 7.4/7.4) + verapamil. Type of data set: in vitro ADME. The following applies: human, Caco-2, pH 7.4, with verapamil (concentration not stated), 1.0E−05 M. A general note: Caco-2 cells form a polarised layer with tight junctions and transporters.
Data set [5] in a line: Metabolic Stability (liver microsomes, rat, Sprague-Dawley). Type of data set: in vitro ADME. Conditions: 1.0E−06 M, 60 min. As to the method: Metabolic stability was determined in human (mixed gender and pool of 50) monkey (male Cynomolgus, pool of 6 or more), dog male, beagle, pool of 4 or more) and rat (male Sprague-Dawley, pool of 100 or more) liver microsomes. […] Four reference substrates (1 μM) were tested simultaneously with COTI-2. […] Peak areas corresponding to COTI-2 were recorded by HPLC-MS/MS. Metabolic stability, expressed as percent of COTI-2 remaining, was calculated by comparing the peak area of COTI-2 at 60 min to time zero.

The next data set concerns the target CYP2D6 (Homo sapiens, UniProt P10635). Briefly: in vitro. Type of data set: in vitro ADME. The following applies: both sexes. As to the method: The final incubation volume was 200 μl. […] Peak areas corresponding to metabolite were recorded.

Where two headings read alike, the source gives them in different places.

CYP2D6, sequence (P10635 whole entry): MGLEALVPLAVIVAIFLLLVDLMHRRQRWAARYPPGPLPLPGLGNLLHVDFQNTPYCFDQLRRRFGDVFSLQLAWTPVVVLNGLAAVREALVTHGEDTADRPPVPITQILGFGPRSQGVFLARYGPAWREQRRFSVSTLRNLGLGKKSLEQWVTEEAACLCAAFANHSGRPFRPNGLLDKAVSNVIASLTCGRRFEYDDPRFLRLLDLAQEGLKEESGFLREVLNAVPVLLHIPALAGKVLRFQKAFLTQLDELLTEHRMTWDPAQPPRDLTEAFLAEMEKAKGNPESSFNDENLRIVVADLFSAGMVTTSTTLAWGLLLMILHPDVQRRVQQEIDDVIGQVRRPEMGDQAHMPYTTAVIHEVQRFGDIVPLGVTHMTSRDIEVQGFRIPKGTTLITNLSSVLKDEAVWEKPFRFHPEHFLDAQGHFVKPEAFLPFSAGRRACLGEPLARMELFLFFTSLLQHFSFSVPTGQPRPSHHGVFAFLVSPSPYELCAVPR

What is called inhibition is the percentage by which the read-out fell short of the control. For `S=C(N/N=C1/CCCc2cccnc21)N1CCN(c2ccccn2)CC1` [COTI-2], in data set [1], the “total Akt protein” value is “decreased”. Besides, the “original tumor cells killed” value in data set [2] is listed as “up to 80%”. For the same compound, the AKT gene expression entry in data set [3] is on record as “down-regulated”. The “Rictor (mTOR-Rictor) expression” value in data set [3] is on record as “down-regulation of Rictor”. Besides, the “reduction of proliferation as a single agent” value in the data set with SHP 77 cells (SHP 77, 31 nM) is reported as 25%; in the data set on SHP 77 cells (SHP 77, 73 nM) it was 25%. Moreover, in the data set with SHP77 cells, the “cell death with total AKT or AKT2 siRNA, presence vs absence of COTI-2” value is listed as “no significant difference in cell death”. The induction of death entry with HL-60 (24 h) was “greater than 30%”; with HL-60 (48 h) it was “greater than 70%”. Further, the recovery at 10 µM in data set [4] (1st determination, read-out: Percent Recovery 1st) stood at 17%; in [4] (2nd determination, read-out: Percent Recovery 2nd), 13%; in data set [4] (mean, read-out: Percent Recovery Mean), 15%. The “Mean Parent Remaining” value in data set [5] came out at 1%. The inhibition at 15 min, 10 µM is 2% on CYP2D6 (human liver microsomes, pH 7.4, probe dextromethorphan (10 µM), CYP2D6, HLM, dextromethorphan substrate, 1.0E−05 M, read-out: % Inhibition of Control Values) and < 50% on CYP2D6 (liver microsomes, pH 7.4, probe dextromethorphan, CYP2D6, 10 μM, read-out: percent inhibition).

These data come from patent publication US8138191B2, “Inhibitor compounds and cancer treatment methods” (Critical Outcome Technologies Inc., priority 2007, dated 2012).
